In patent publication EP0364941A1, “Branched-chain alkyl esters of 2-(4-(2-piperidino ethoxy)benzoyl)benzoic acid, processes for their preparation and their use as spasmolytic agents” (HOECHST AKTIENGESELLSCHAFT, priority 1988, dated 1990):

Key:
Porcine liver esterase = test: Enzymatic hydrolysis rates by porcine liver esterase; assay type: in vitro ADME; details: test compound 1 mM, pH 8.0, 37°C
Experimental: Porcine liver esterase (0.5 U = 2 µg) was preincubated in 40 mM Tris-HCl buffer, pH 8.0, at 37°C for 5 min. The reaction was initiated with the addition of the test compound (final concentration, 1 mM) in the final volume of 250 µl. Enzyme reaction was terminated at different time intervals by the addition of 60 µl of 1 M acetic acid. The solution was made alkaline (pH 10.5) by adding 0.4 M NaOH and the alkaline solution was rapidly extracted (three times) with 2.5 ml of chloroform. An aliquot of the aqueous supernatant was diluted with double distilled water and the absorbance was measured at 290 nm. Amount of test compound III (molar extinction = 14,400) formed was calculated.

[1] = test system: isolated guinea pig ileum; test: Antispasmodic activity in isolated guinea pig ileum (acetylcholine-induced contraction); assay type: cell-based
Experimental: Small intestines obtained from freshly sacrificed guinea pigs (weight range, 200 - 400 g) of either sex were cleaned and stored in tyrode solution. A piece of ileum was mounted in an organ bath containing tyrode solution at 37°C and maintained at a tension of 0.5 to 1.0 g. The solution was continuously aerated with compressed air. After an initial equilibration period, a sub-maximal dose of acetylcholine required for measurable contraction was standardised. Tension changes were monitored using an isotonic strain gauge attached to the tissue and the responses were recorded on a strip chart recorder. Antispasmodic activity of test compounds at different concentrations was followed and the IC₅₀ values were calculated from dose response curves.

small intestine [2] = test: Antispasmodic activity in anaesthetized dog (carbachol or acetylcholine induced intestinal contractions); assay type: in vivo; details: anaesthetised dog
Experimental: Male mongrel dogs of weight range 10 to 15 kg were anaesthetised with pentobarbitone sodium (35 mg/ kg,i.v.). Slow i.v. infusion of pentobarbitone (5 mg/kg/hour) was given for maintenance anaesthesia. The endotracheal tube was inserted to facilitate spontaneous breathing. Both femoral artery and vein were cannulated respectively for recording blood pressure and administering drugs. After laparotomy, a small portion of small intestine distal to duodenum was isolated and saline filled balloon inserted and the opening was sutured. A fine polyethylene cannula was then inserted into the mesenteric artery which supplies to the area of intestine containing balloon for injection of carbachol or acetylcholine. A Statham pressure transducer was then attached to balloon cannula for recording both circular and longitudinal muscle contractions. All the parameters were recorded on 4 channel Nihon-Kohden recorder. The intestinal contractions were recorded after administering a standard dose of carbachol or acetylcholine (0.5 to 3 µg). Test compounds I and II were given at different doses 3,10 and 20 mg/kg intra-duodenally and spasmolytic activity was assessed at various time intervals. Anti-spasmodic activity was assessed by calculating percent reduction in agonist induced contractions and also noting onset and duration of activity. The test compounds were dissolved in distilled water (1% soln.). Table 3 Test compounds I and II were given at different doses (10, 30, 100, 300 and 1000 µg/kg) intravenously and spasmolytic activity was assessed at different time intervals. Anti-spasmodic activity was assessed by calculating percent reduction in agonist induced contractions. The ID₅₀ value was calculated from the dose response curve.

small intestine [3] = test: Gastrointestinal propulsion (charcoal transport) in mice; assay type: in vivo
Experimental: Ref.: J.M.A. Zwagemakers and V. Claassen, Arzneim-Forsch/-Drug Res. 30 (II) Nr.9, p.1517 (1980).
The test compounds I and II were given orally by gavage in a range of 10 to 100 mg/kg doses 30 min before charcoal suspension (0.2 ml/animal, 10% charcoal in 5% gum acacia) in 18 hrs fasted mice (male or female, weight range 18 to 25 g). 30 min after administration of charcoal animals were killed and the extent of charcoal propulsion in the small intestine was measured. The inhibitory activity of test compound on charcoal transport was assessed as percent inhibition compared to length of intestine. For control group 10 ml/kg of saline was given.

large Bowel = test: Motility of the large bowel (colonic motor complex) in conscious dogs; assay type: in vivo
Excerpt: Male dogs (THG Tierhandelsgesellschaft Rodenbach, Hoe:BEAK (Beagle)) weighing 15 - 20 kg were used in all experiments.
At least 4 weeks prior the experiment the dogs had been equipped with miniaturised strain gage force transducers (T1-T2) (2x4mm), sutured onto the gut at the locations mentioned below. The cables of the transducers were embedded into a cannula which carried the plug for external electric connection. This stainless steel cannula was implanted into the abdominal wall, close below the costal arch. Each transducer was connected to a measuring bridge. The signals were on line stored using a HP 9835 A computer, allowing later analysis of the data. • T1 : Colon ascendens 10 cm aborafrom the ileoceval valve (ICV) • T2 : Colon transversum 25 cm aborad from the ICV
18 hours prior to the experiment food was withdrawn from the animals, water ad libidum. All experiments started between 08:00 and 09:00 am.
The following parameters were determined: The duration of the cycle (min) The duration of the colonic motor complex (CMC) (min) The maximal height of the concentrations (AU: arbitrary units)
Data from the two recording sites (T1-T2) were pooled. […]
For detection of significant differences (p < 0.05) the unpaired t-test was used. Only significant differences were indicated by *.

CC(C)OC(=O)c1ccccc1C(=O)c1ccc(OCCN2CCCCC2)cc1.Cl [Test Compound II, Isopropyl-2-[4-(2-piperidino-ethoxy)-benzoyl]-benzoate hydrochloride]
µmol test compound III formed per mg protein per ml (Porcine liver esterase; Time 0.0 hours): 0.00 µmol per mg protein per ml
µmol test compound III formed per mg protein per ml (Porcine liver esterase; Time 0.5 hours): 0.05 µmol per mg protein per ml
µmol test compound III formed per mg protein per ml (Porcine liver esterase; Time 2.0 hours): 0.10 µmol per mg protein per ml
µmol test compound III formed per mg protein per ml (Porcine liver esterase; Time 3.5 hours): 0.10 µmol per mg protein per ml
Guinea pig ileum Duration of action [1]: > 7.0 min
IC50 ([1]; Cavia porcellus, read-out: Guinea pig ileum IC₅₀): 0.01 µg/mL
Duration (small intestine [2]; 3 mg/kg intra-duodenal): 35 min
On-set (small intestine [2]; 3 mg/kg intra-duodenal): 7 min
Percent Inhibition (small intestine [2]; 3 mg/kg intra-duodenal): 54%
Duration (small intestine [2]; 10 mg/kg intra-duodenal): 78 min
On-set (small intestine [2]; 10 mg/kg intra-duodenal): 6.5 min
Percent Inhibition (small intestine [2]; 10 mg/kg intra-duodenal): 83%
ED50 (small intestine [2]; Canis lupus familiaris, iv, read-out: ID₅₀): 0.01 mg/kg
Duration of action (small intestine [2]; intravenous administration): > 60 min
Percent Inhibition (small intestine [3]; 10 mg/kg p.o.): 38.0 ± 4.0%
Percent Inhibition (small intestine [3]; 30 mg/kg p.o.): 41.0 ± 3.0%
Percent Inhibition (small intestine [3]; 60 mg/kg p.o.): 46.0 ± 5.0%
effect on colonic motility (large Bowel; 1 mg/kg i.g.): uneffective
Duration CMC (large Bowel; 1 mg/kg intragastrically): 6 ± 2 min
Duration Cycle (large Bowel; 1 mg/kg intragastrically): 28 ± 11 min
Max.heigth of CMC (large Bowel; 1 mg/kg intragastrically): 50±25 AU
Total number of spikes (large Bowel; 1 mg/kg intragastrically): 5.6±1.7 n/CMC
Duration CMC (large Bowel; 3 mg/kg intragastrically): 11 ± 3 min
Duration Cycle (large Bowel; 3 mg/kg intragastrically): 136 ± 42 min
Max.heigth of CMC (large Bowel; 3 mg/kg intragastrically): 40±23 AU
Total number of spikes (large Bowel; 3 mg/kg intragastrically): 5.5±1.0 n/CMC
duration of complete inhibition of colonic motility (CMC) (large Bowel; 4 mg/kg i.g.): about 2 hours
